“Also recorded” adds a separate entry of the source.
Tests used:
[1] = tested on: donor hepatocytes positive for the PNPLA3 rs738409:G variant; test: Lipid peroxidation (C11-BODIPY / MDA) in primary human hepatocytes; assay type: cell-based
Protocol: To evaluate the protective effects of deferoxamine, primary human hepatocytes were treated with 100 μM deferoxamine (DFO, Sigma-Aldrich, Saint-Louis, MO) for 24 hours in suspension. To evaluate the protective effects of GSH, primary human hepatocytes on collagen-coated plates were treated with 10 μM reduced L-glutathione (GSH, G4251, Sigma-Aldrich, Saint-Louis, MO) for 48 hours. Analysis of Lipid Peroxidation: A oxidation-sensitive probe C11-BODIPY (581/591) (Invitrogen, Carlsbad, CA) was used to evaluate lipid peroxidation under a fluorescence microscope. Untreated hepatocytes were prepared using a cytocentrifuge, incubated for 30 min with 10 μM C11-BODIPY, and washed with PBS. Cultured cells were incubated with 10 μM C11-BODIPY dissolved in culture media for 30 min at 37° C. and washed with PBS. The fluorescent signal was evaluated 3 hours after induction of ferroptosis. Malondialdehyde (MDA) is a natural biproduct of lipid peroxidation and MDA quantification is used as marker for lipid peroxidation. The MDA content in primary human hepatocytes was quantified using a commercially available kit from Sigma-Aldrich (Sigma-Aldrich, Saint-Louis, MO). Cryopreserved primary human hepatocytes were pelleted and analyzed directly or were cultured for 3 hours in suspension before the analysis. […] The MDA-TBA adduct was quantified using fluorometric detection (ex/em=430 nm/590 nm).

[2] = tested on: donor hepatocytes positive for the PNPLA3 rs738409:G variant; test: Cell viability / survival (Alamar Blue) of primary human hepatocytes; assay type: cell-based
Protocol: To evaluate the protective effects of deferoxamine, primary human hepatocytes were treated with 100 μM deferoxamine (DFO, Sigma-Aldrich, Saint-Louis, MO) for 24 hours in suspension. To evaluate the protective effects of GSH, primary human hepatocytes on collagen-coated plates were treated with 10 μM reduced L-glutathione (GSH, G4251, Sigma-Aldrich, Saint-Louis, MO) for 48 hours. Cell Viability Measurements: Cell viability was assessed in 96-well format using Alamar Blue (Invitrogen, Carlsbad, CA) absorbance (570 nm/600 nm) measured on a synergy HTX microplate reader (Biotek, Winooski, VT) 24 hours after ferroptosis induction. Post thaw viability of primary human hepatocytes was evaluated by Trypan blue dye exclusion counting using a Countess 3 automated cell counter (Invitrogen, Carlsbad, CA).

[3] = tested on: donor hepatocytes positive for the PNPLA3 rs738409:G variant; test: Mitochondrial shape by transmission electron microscopy; assay type: cell-based, human; conditions: in the presence of FINO2
Protocol: To evaluate the protective effects of deferoxamine, primary human hepatocytes were treated with 100 μM deferoxamine (DFO, Sigma-Aldrich, Saint-Louis, MO) for 24 hours in suspension. To evaluate the protective effects of GSH, primary human hepatocytes on collagen-coated plates were treated with 10 μM reduced L-glutathione (GSH, G4251, Sigma-Aldrich, Saint-Louis, MO) for 48 hours. Transmission electron microscopy: Human hepatocytes in suspension were briefly centrifugated and washed with PBS solution. Samples were then fixed with 2.5% glutaraldehyde over night at 4° C. Fixed samples were processed by the Center for Biologic Imaging at the University of Pittsburgh, and treated with 1% osmium tetroxide and 1% potassium ferricyanide for 1 hour at room temperature. Samples were washed with PBS and dehydrated in a graded series of ethanol solution (30%, 50%, 70%, and 90% ethanol; 10 minutes each) and three 15-minute incubations in fresh 100% ethanol. Infiltration/embedding was done with three 1-hour incubations of epon. The last change of epon was removed and beam capsules filled with resin were inverted over relevant areas of the monolayers. […] Mitochondrial shape was evaluated as published previously using ImageJ (Merrill et al. in Techniques to Investigate Mitochondrial Function in Neurons, 123:31-48. Neuromethods. Springer New York, 2017).

With `CC1(CCO)CC2(CCC(C(C)(C)C)CC2)OO1` (stereo not drawn) [FINO2, (5α,8α)-8-(1,1-dimethylethyl)-3-methyl-1,2-dioxaspiro[4.5]decane-3-ethanol, reference compound] the lipid peroxidation ([1]; donor hepatocytes cultured in the presence of FINO2 (50 μM)) was “increased lipid peroxidation”, the donor hepatocyte survival ([2]; donor hepatocytes cultured in the presence of FINO2 (50 μM), 24 hours after ferroptosis induction) was “significant reduction in donor hepatocyte survival” and the mitochondrial shape [3] was “changed from a rod shape to a spherical shape”.

For `N[C@@H](CCC(=O)N[C@@H](CS)C(=O)NCC(=O)O)C(=O)O` [GSH, reduced L-glutathione], the lipid peroxidation ([1]; 10 μM reduced L-glutathione, 48 hours, collagen-coated plates) was “reduces lipid peroxidation; also recorded: decreased lipid peroxidation” and the survival ([2]; 10 μM reduced L-glutathione, 48 hours, collagen-coated plates, p=0.002) was “improves cell survival; also recorded: increased survival”.

— patent US20250001009A1, “THERAPY FOR PROGRAMMED CELL DEATH IN A SUBJECT TRANSPLANTED WITH A DONOR LIVER CARRYING THE PNPLA3 RS738409:G VARIANT” (priority 2021, published 2025)
